# Assay results published in patent publication US6657052B1, “Biomolecular labeling” (University of Arkansas, priority 1997, dated 2003).
# Experiments:
# [1] = cited from earlier work; for pKa: H2O, 25° C., Lange's Handbook of Chemistry
# [2] = Hydrolysis of kinetically formed trialkylphosphate in the presence of water (1H NMR); assay type: physicochemical
# Description: (§1) 3.3 Kinetic favorability of phosphotriester formation over hydrolysis in the presence of water. The reaction of quinone methide 7 and two equivalents of dibenzylphosphoric acid in the presence of excess water (˜200 equivalents for a homogeneous solution) afforded only trialkylphosphate 8 as the product in the equilibrium by 1H NMR analysis. […] Trialkylphosphate 8 is the kinetic product. A similar amount of 8 is produced in the presence of a much higher concentration of water (3,000 equivalents forming a bilayer) at ambient temperature after 30 minutes. […] Hydrolysis to benzyl alcohol appears to be the thermodynamic product^39. Similar results of quinone methides reacting with amino acid derivatives under aqueous conditions have been reported by other researchers^43.
# as §1, with “(3)” for “3.3”, “^1H” for “1H”, “product. […]” for “product^39. Similar results of quinone methides reacting with amino acid derivatives under aqueous conditions have been reported by other researchers^43.”
Compound,pKa [1],reported pKa values for various substituted guanidines [1],other results
Nc1cccc(O)c1 [3-aminophenol],9.83,,
CCN(C)CC [Et2MeN],10.4,,
N=C(N)N [guanidine],14.38,,
CNC(=N)N [methylguanidine],14.1,14.1,
N=C(N)Nc1ccccc1 [phenylguanidine],,10.8,
Cc1cc(COP(=O)(OCc2ccccc2)OCc2ccccc2)cc(C)c1O [trialkylphosphate 8],,,"hydrolysis to benzyl alcohol ([2]; 3,000 equivalents water forming a bilayer, ambient temperature, after 18 hours): complete conversion to benzyl alcohol; hydrolysis to benzyl alcohol ([2]; excess water (~200 equivalents, homogeneous solution), 18 hours at ambient temperature): Minor amounts of the benzyl alcohol hydrolysis product"
